# Experimental data reported in ChEMBL document CHEMBL1155115 (J Med Chem, 2008).
# Assays:
# [1] = target: T1, Farnesyl pyrophosphate synthase (Homo sapiens) (UniProt P14324); experiment: Inhibition of farnesyl diphosphate synthase at 30 nM
# T1 sequence (whole entry): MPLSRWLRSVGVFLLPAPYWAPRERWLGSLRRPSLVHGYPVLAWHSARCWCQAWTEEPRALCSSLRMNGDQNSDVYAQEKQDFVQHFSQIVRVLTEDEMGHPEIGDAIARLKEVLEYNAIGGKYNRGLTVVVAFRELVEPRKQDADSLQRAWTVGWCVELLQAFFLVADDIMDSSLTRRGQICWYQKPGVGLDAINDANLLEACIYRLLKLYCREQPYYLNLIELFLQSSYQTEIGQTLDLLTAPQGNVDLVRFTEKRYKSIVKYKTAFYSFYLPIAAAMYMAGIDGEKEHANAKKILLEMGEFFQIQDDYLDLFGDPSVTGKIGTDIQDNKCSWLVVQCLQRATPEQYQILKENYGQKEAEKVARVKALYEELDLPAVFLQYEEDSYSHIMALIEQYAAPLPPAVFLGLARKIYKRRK
# [2] = tested on: Dictyostelium discoideum; experiment: Antimicrobial activity against Dictyostelium discoideum; assay type: functional, organism-based
# [3] = target: T1, Farnesyl pyrophosphate synthase (Homo sapiens); experiment: Inhibition of farnesyl diphosphate synthase at 35 nM
inhibition [1],IC50 [2],inhibition [3],SMILES
58%,30 µM,,O=P(O)(O)C(O)(CC1CCCNC1)P(=O)(O)O (stereo unspecified)
,18 µM,,Nc1ccccc1CC(O)(P(=O)(O)O)P(=O)(O)O
,27 µM,59%,CC[n+]1cccc(CC(P(=O)([O-])O)P(=O)(O)O)c1 (stereo unspecified)
,< 240 µM,,O=P(O)(O)C(O)(Cc1ccccc1)P(=O)(O)O
